Measurements taken from patent US11660293B2, “Substituted 2-azabicyclo[3.1.1]heptane and 2-azabicyclo[3.2.1]octane derivatives as orexin receptor antagonists” (Chronos Therapeutics Limited, priority 2017, dated 2023).

How the values were obtained:
[1] = target: T1, human Orexin type 2 receptors (Homo sapiens (Human), UniProt O43614); assay: Intracellular calcium measurement (FLIPR), antagonism of Orexin-A at EC80 in CHO-hOX2 cells
[2] = target: T2, human Orexin type 1 receptors (Homo sapiens (Human), UniProt O43613); assay: Intracellular calcium measurement (FLIPR), antagonism of Orexin-A at EC80 in CHO-hOX1 cells
[3] = target: T1, human Orexin type 2 receptors; assay: Scintillation Proximity Assay (SPA) binding assay, [3H]EMPA displacement, HEK-hOX2 membranes
[4] = target: T2, human Orexin type 1 receptors; assay: Scintillation Proximity Assay (SPA) binding assay, [3H]SB-674042 displacement, CHO-hOX1 membranes

T1 sequence (O43614 whole entry): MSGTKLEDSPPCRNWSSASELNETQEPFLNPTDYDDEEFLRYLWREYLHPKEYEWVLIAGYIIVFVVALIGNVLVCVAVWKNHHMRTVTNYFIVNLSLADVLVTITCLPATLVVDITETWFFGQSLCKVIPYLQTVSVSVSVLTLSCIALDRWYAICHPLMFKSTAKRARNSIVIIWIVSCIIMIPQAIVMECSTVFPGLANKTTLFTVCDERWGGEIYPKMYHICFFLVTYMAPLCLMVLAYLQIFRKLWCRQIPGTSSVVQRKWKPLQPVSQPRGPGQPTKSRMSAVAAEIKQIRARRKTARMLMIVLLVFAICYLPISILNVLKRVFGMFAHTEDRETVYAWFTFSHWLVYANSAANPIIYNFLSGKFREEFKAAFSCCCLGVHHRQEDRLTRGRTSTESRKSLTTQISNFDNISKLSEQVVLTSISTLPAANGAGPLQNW
T2 sequence (O43613 whole entry): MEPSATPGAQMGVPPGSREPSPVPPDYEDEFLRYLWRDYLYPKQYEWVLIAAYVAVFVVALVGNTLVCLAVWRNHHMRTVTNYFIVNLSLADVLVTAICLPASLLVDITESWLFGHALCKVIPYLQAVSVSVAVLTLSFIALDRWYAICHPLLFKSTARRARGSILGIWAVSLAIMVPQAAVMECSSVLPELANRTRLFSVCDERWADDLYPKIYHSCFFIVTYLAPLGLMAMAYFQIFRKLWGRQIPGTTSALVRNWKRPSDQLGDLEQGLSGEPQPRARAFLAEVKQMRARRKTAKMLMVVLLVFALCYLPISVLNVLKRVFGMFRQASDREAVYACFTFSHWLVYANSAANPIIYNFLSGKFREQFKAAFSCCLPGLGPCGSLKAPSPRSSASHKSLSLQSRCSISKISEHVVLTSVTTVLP

Row | Compound | Ki [1] [nM] | Ki [2] [nM] | OX2 pKi (SPA binding) ([3]; Table 2, [3H]EMPA 2 nM) | OX1 pKi (SPA binding) ([4]; Table 2, [3H]SB-674042 2 nM) | further results
1 | Cc1ccc(-c2nccs2)c(C(=O)N2C(COc3ccc(F)cc3)CC3CC2C3)n1 (racemic) [Example 4] | 162 | 5.75 | – | – | –
2 | Cc1ccc(-c2ncccn2)c(C(=O)N2C(COc3ccc(F)cc3)CC3CC2C3)n1 (racemic) [Example 13] | 170 | 7.76 | – | – | –
3 | Cc1ccc(-c2nccs2)c(C(=O)N2C(COc3ccc(F)cc3)CC3CC2C3)c1 (racemic) [Example 7] | 141 | 7.08 | – | – | –
4 | Cc1ccc(-c2nccs2)c(C(=O)N2C(COc3ccc(F)cc3)CC3CC2C3)n1 (single isomer, unassigned) [Example 6, (3S or 3R) 3-(4-fluorophenoxymethyl)-2-{[6-methyl-3-(1,3-thiazol-2-yl)pyridin-2-yl]carbonyl}-2-azabicyclo[3.1.1]heptane] | 93.3 | 5.13 | – | – | –
5 | Cc1ccc(-c2ncccn2)c(C(=O)N2C(COc3ccc(F)cn3)CC3CC2C3)n1 (single isomer, unassigned) [Example 22, (3S or 3R) 3-{[(5-fluoropyridin-2-yl)oxy]methyl}-2-{[6-methyl-3-(pyrimidin-2-yl)pyridin-2-yl]carbonyl}-2-azabicyclo[3.1.1]heptane] | 174 | 34.7 | – | – | –
6 | Cc1ccc(-c2nccs2)c(C(=O)N2C(COc3ccc(Cl)cc3)CC3CC2C3)c1 (centres unmarked) [Example 20] | – | 22.9 | – | – | –
7 | C[C@@H]1C2CC(C2)N(C(=O)c2cc(Cl)ccc2-n2nccn2)C1CNc1nc2cccnc2o1 (single isomer, unassigned) [Example 244, N-{[(3R,4S) or (3S,4R)-2-[5-chloro-2-(2H-1,2,3-triazol-2-yl)benzoyl]-4-methyl-2-azabicyclo[3.1.1]heptan-3-yl]methyl}-[1,3]oxazolo[5,4-b]pyridin-2-amine] | – | – | 5.18 | 8.25 | –
8 | Cc1cnc(-n2nccn2)c(C(=O)N2C3CC(C3)[C@@H](C)C2COc2ccc(F)cc2)n1 (mixture of isomers) [Example 145, cis-3-[(4-fluorophenoxy)methyl]-4-methyl-2-[6-methyl-3-(2H-1,2,3-triazol-2-yl)pyrazine-2-carbonyl]-2-azabicyclo[3.1.1]heptane] | – | – | 5.62 | 7.03 | –
9 | C[C@@H]1C2CC(C2)N(C(=O)c2cc(F)ccc2-n2nccn2)C1CNc1cnc2cc(F)ccc2n1 (stereo in doubt) [Example 224, cis-6-fluoro-N-({2-[5-fluoro-2-(2H-1,2,3-triazol-2-yl)benzoyl]-4-methyl-2-azabicyclo[3.1.1]heptan-3-yl}methyl)quinoxalin-2-amine] | – | – | 6.19 | 8.04 | –
10 | Cc1nc(C(=O)N2C3CC(C3)[C@H](C)C2COc2ccc(F)cn2)c(-c2ccccn2)s1 (mixture of isomers) [Example 117, trans-3-{[(5-fluoropyridin-2-yl)oxy]methyl}-4-methyl-2-[2-methyl-5-(pyridin-2-yl)-1,3-thiazole-4-carbonyl]-2-azabicyclo[3.1.1]heptane] | – | – | 5.47 | 7.13 | –
11 | C[C@@H]1C2CC(C2)N(C(=O)c2cc(F)ccc2-n2nccn2)C1CNc1cnc(C2CC2)cn1 (some centres unmarked) [Example 258] | – | – | 5.35 | 7.07 | –
12 | Cc1cnc(-c2ccc(C)nc2C(=O)N2C3CC(C3)[C@@H](C)C2COc2ccc(F)cc2)nc1 (mixture of isomers) [Example 138, cis-3-[(4-fluorophenoxy)methyl]-4-methyl-2-[6-methyl-3-(5-methylpyrimidin-2-yl)pyridine-2-carbonyl]-2-azabicyclo[3.1.1]heptane] | – | – | 7.05 | 8.08 | –
13 | Cc1nc(C(=O)N2C(COc3ccc4ccccc4n3)CC3CC2C3)c(-c2ccccc2)s1 (centres unmarked) [Example 56] | – | – | – | – | OX2 pKi (SPA binding) ([3]; Table 1, [3H]EMPA 2 nM): 7.12; OX1 pKi (SPA binding) ([4]; Table 1, [3H]SB-674042 2 nM): 7.98
14 | Cc1ccc(-n2nccn2)c(C(=O)N2C3CC(C3)[C@@H](C)C2COc2ccc(F)cc2)c1 (stereo partly drawn) [Example 97, cis-3-[(4-fluorophenoxy)methyl]-4-methyl-2-[5-methyl-2-(2H-1,2,3-triazol-2-yl)benzoyl]-2-azabicyclo[3.1.1]heptane] | – | – | – | – | OX2 pKi (SPA binding) ([3]; Table 1, [3H]EMPA 2 nM): 6.51; OX1 pKi (SPA binding) ([4]; Table 1, [3H]SB-674042 2 nM): 7.74
15 | C[C@@H]1C2CC(C2)N(C(=O)c2cc(C#N)ccc2-n2nccn2)C1CNc1cnc(C(F)(F)F)cn1 (mixture of isomers) [Example 237, cis-3-[4-methyl-3-({[5-(trifluoromethyl)pyrazin-2-yl]amino}methyl)-2-azabicyclo[3.1.1]heptane-2-carbonyl]-4-(2H-1,2,3-triazol-2-yl)benzonitrile] | – | – | 4.82 | 7.33 | –
16 | Cc1ccc(-n2nccn2)c(C(=O)N2C3CC(C3)[C@@H](C)C2CNc2cnc(C(F)(F)F)cn2)c1 (single isomer, unassigned) [Example 256, N-{[(3R,4S) or (3S,4R)-4-methyl-2-[5-methyl-2-(2H-1,2,3-triazol-2-yl)benzoyl]-2-azabicyclo[3.1.1]heptan-3-yl]methyl}-5-(trifluoromethyl)pyrazin-2-amine] | – | – | 5.18 | 8.75 | –
17 | O=C(c1nc(C2CC2)sc1-c1ccccc1)N1C(COc2ccc(F)cc2)CC2CC1C2 (centres unmarked) [Example 53] | – | – | – | – | OX2 pKi (SPA binding) ([3]; Table 1, [3H]EMPA 2 nM): 7.13; OX1 pKi (SPA binding) ([4]; Table 1, [3H]SB-674042 2 nM): 7.58
18 | Cc1ccc(-n2nccn2)c(C(=O)N2C3CC(C3)[C@@H](C)C2CNc2nc3ccc(F)cc3s2)n1 (single isomer, unassigned) [Example 154, 6-fluoro-N-{[(3R,4S) or (3S,4R)-4-methyl-2-[6-methyl-3-(2H-1,2,3-triazol-2-yl)pyridine-2-carbonyl]-2-azabicyclo[3.1.1]heptan-3-yl]methyl}-1,3-benzothiazol-2-amine] | – | – | 6.23 | 9.06 | –

Second part, led by results:

Row | Ki [1] [nM] | Ki [2] [nM] | Compound | OX2 pKi (SPA binding) ([3]; Table 2, [3H]EMPA 2 nM) | OX1 pKi (SPA binding) ([4]; Table 2, [3H]SB-674042 2 nM) | further results
19 | 295 | 12.9 | Cc1ccc(-c2ncccn2)c(C(=O)N2C3CC(C3)C(C)C2COc2ccc(F)cc2)c1 (mixture of isomers) [Example 69, CIS/TRANS 3-(4-fluorophenoxymethyl)-4-methyl-2-[5-methyl-2-(pyrimidin-2-yl)benzoyl]-2-azabicyclo[3.1.1]heptane] | – | – | –
20 | 200 | 67.6 | Cc1ccc(-c2ncccn2)c(C(=O)N2C(COc3ccc(C(F)(F)F)cn3)CC3CC2C3)c1 (single isomer, unassigned) [Example 36, (3S or 3R) 2-{[5-methyl-2-(pyrimidin-2-yl)phenyl]carbonyl}-3-({[5-(trifluoromethyl)pyridin-2-yl]oxy}methyl)-2-azabicyclo[3.1.1]heptane] | – | – | –
21 | 562 | 1.38 | Cc1nc(C(=O)N2C3CC(C3)[C@@H](C)[C@@H]2COc2ccc(F)cc2)c(-c2ccccc2)s1 (single isomer, unassigned) [Example 67, (3S,4S or 3R,4R) 3-(4-fluorophenoxymethyl)-4-methyl-2-(2-methyl-5-phenyl-1,3-thiazole-4-carbonyl)-2-azabicyclo[3.1.1]heptane] | – | – | –
22 | 107 | 18.2 | Cc1ccc(-c2ncccn2)c(C(=O)N2C(CCOc3ccc(F)cc3)CC3CC2C3)c1 (single isomer, unassigned) [Example 42, (3S or 3R) 3-[2-(4-fluorophenoxy)ethyl]-2-[5-methyl-2-(pyrimidin-2-yl)benzoyl]-2-azabicyclo[3.1.1]heptane] | – | – | –
23 | 182 | 18.2 | Cc1ccc(-c2nccs2)c(C(=O)N2C(COc3ccc(F)cn3)CC3CC2C3)c1 (single isomer, unassigned) [Example 26, (3S or 3R) 3-{[(5-fluoropyridin-2-yl)oxy]methyl}-2-{[5-methyl-2-(1,3-thiazol-2-yl)phenyl]carbonyl}-2-azabicyclo[3.1.1]heptane] | – | – | –
24 | 776 | 97.7 | Cc1ccc(-c2nccs2)c(C(=O)N2C(COc3ccc(F)cn3)CC3CC2C3)n1 (centres unmarked) [Example 31] | – | – | –
25 | 89.1 | 3.39 | Cc1ccc(-c2ncccn2)c(C(=O)N2C3CC(C3)[C@@H](C)[C@H]2COc2ccc(F)cc2)c1 (single isomer, unassigned) [Example 71, (3S,4R or 3R,4S) 3-(4-fluorophenoxymethyl)-4-methyl-2-[5-methyl-2-(pyrimidin-2-yl)benzoyl]-2-azabicyclo[3.1.1]heptane] | – | – | –
26 | 759 | 46.8 | Cc1nc(C(=O)N2C(COc3ccc(F)cn3)CC3CC2C3)c(-c2ccccc2)s1 (centres unmarked) [Example 24] | – | – | –
27 | 589 | 28.8 | Cc1ccc(-c2ncccn2)c(C(=O)N2C3CC(C3)[C@@H](C)C2COc2ccc(F)cn2)c1 (some centres unmarked) [Example 74] | – | – | –
28 | 105 | 10.5 | Cc1ccc(-c2ncccn2)c(C(=O)N2C3CC(C3)[C@@H](C)C2COc2ccc(F)cn2)c1 (single isomer, unassigned) [Example 75, (3S,4R or 3R,4S) 3-{[(5-fluoropyridin-2-yl)oxy]methyl}-4-methyl-2-[5-methyl-2-(pyrimidin-2-yl)benzoyl]-2-azabicyclo[3.1.1]heptane] | – | – | –
29 | > 1000 | 21.9 | Cc1nc(C(=O)N2C3CC(C3)C(C)C2COc2ccc(F)cn2)c(-c2ccccc2)s1 (mixture of isomers) [Example 77, CIS/TRANS 3-{[(5-fluoropyridin-2-yl)oxy]methyl}-4-methyl-2-(2-methyl-5-phenyl-1,3-thiazole-4-carbonyl)-2-azabicyclo[3.1.1]heptane] | – | – | –
30 | 234 | 35.5 | Cc1ccc(-c2ncccn2)c(C(=O)N2C3CC(C3)C(C)C2COc2ccc(F)cn2)n1 (mixture of isomers) [Example 78, CIS/TRANS 3-{[(5-fluoropyridin-2-yl)oxy]methyl}-4-methyl-2-[6-methyl-3-(pyrimidin-2-yl)pyridine-2-carbonyl]-2-azabicyclo[3.1.1]heptane] | – | – | –
